{
  "source": "patent US9453226B2",
  "about": "“Protection of cells from Alu-RNA-induced degeneration and inhibitors for protecting cells” (UNIVERSITY OF KENTUCKY RESEARCH FOUNDATION, priority 2011, dated 2016)",
  "key": {"human RPE cells [1]": {"system": "human RPE cells", "settings": "human RPE cells transfected with pAlu", "method": "All cell cultures were maintained at 37° C. and 5% CO2. Primary mouse RPE cells were isolated as previously described (Yang et al., 2009) and grown in Dulbecco Modified Eagle Medium (DMEM) supplemented with 20% FBS and standard antibiotics concentrations. Primary human RPE cells were isolated as previously described (Yang et al., 2008) and maintained in DMEM supplemented with 10% FBS and antibiotics. HeLa cells were maintained in DMEM supplemented with 20% FBS and standard antibiotics concentrations. THP-1 cells were cultured in RPMI 1640 medium supplemented with 10% FBS and antibiotics.\nMTS assays were performed using the CellTiter 96 AQueous One Solution Cell Proliferation Assay (Promega) according to the manufacturer's instructions. For examining the cytoprotective effect of glycine in Alu RNA induced cell death, human RPE cells were transfected with pNull/pAlu. At 6 h post-transfection the cells were incubated with complete media containing glycine (5 mM) or vehicle, and cell viability was assessed after 24 h. Similarly, human RPE cells primed with LPS (5 μg/ml for 6 h) were treated with ATP (25 μM) in the presence of glycine containing media (5 mM). 30 min post ATP cell viability was assessed as described above.\nMTS assays were performed using the CellTiter 96 AQueous One Solution Cell Proliferation Assay (Promega) according to the manufacturer's instructions."}, "human RPE cells [2]": {"system": "human RPE cells", "assay": "Loss of human RPE cell viability induced by DICER1 antisense", "format": "cell-based"}},
  "note": "Where two headings read alike, the source gives them in different places.",
  "data": [
    {"sequence": "DRQIKIWFQNRRMKWKKRDVLPGT [MyD88 inhibitory peptide]", "values": [
      {"measurement": "pAlu-induced human RPE cell death / loss of cell viability", "setting": "human RPE cells [1]; listed as MyD88-inhibitory peptide", "result": "inhibited cell death"},
      {"measurement": "pAlu-induced human RPE cell death / loss of cell viability", "setting": "human RPE cells [1]; listed as MyD88i", "result": "rescued"},
      {"measurement": "loss of human RPE cell viability induced by DICER1 antisense (AS)", "setting": "human RPE cells [2]", "result": "rescues"}
    ]}
  ]
}
